Assay results: ChEMBL document CHEMBL1140275, “Discovery of a novel and potent series of dianilinopyrimidineurea and urea isostere inhibitors of VEGFR2 tyrosine kinase” (Bioorg Med Chem Lett, 2005)

Experiments:
[1] = system: HUVEC; assay: Inhibitory concentration against human umbilical vein endothelial cells (HUVECs) induced by VEGF; format: functional, cell-based
[2] = target: Vascular endothelial growth factor receptor 2 (Homo sapiens, UniProt P35968); assay: Inhibitory concentration against human VEGFR2 kinase
Vascular endothelial growth factor receptor 2, sequence (P35968 whole entry): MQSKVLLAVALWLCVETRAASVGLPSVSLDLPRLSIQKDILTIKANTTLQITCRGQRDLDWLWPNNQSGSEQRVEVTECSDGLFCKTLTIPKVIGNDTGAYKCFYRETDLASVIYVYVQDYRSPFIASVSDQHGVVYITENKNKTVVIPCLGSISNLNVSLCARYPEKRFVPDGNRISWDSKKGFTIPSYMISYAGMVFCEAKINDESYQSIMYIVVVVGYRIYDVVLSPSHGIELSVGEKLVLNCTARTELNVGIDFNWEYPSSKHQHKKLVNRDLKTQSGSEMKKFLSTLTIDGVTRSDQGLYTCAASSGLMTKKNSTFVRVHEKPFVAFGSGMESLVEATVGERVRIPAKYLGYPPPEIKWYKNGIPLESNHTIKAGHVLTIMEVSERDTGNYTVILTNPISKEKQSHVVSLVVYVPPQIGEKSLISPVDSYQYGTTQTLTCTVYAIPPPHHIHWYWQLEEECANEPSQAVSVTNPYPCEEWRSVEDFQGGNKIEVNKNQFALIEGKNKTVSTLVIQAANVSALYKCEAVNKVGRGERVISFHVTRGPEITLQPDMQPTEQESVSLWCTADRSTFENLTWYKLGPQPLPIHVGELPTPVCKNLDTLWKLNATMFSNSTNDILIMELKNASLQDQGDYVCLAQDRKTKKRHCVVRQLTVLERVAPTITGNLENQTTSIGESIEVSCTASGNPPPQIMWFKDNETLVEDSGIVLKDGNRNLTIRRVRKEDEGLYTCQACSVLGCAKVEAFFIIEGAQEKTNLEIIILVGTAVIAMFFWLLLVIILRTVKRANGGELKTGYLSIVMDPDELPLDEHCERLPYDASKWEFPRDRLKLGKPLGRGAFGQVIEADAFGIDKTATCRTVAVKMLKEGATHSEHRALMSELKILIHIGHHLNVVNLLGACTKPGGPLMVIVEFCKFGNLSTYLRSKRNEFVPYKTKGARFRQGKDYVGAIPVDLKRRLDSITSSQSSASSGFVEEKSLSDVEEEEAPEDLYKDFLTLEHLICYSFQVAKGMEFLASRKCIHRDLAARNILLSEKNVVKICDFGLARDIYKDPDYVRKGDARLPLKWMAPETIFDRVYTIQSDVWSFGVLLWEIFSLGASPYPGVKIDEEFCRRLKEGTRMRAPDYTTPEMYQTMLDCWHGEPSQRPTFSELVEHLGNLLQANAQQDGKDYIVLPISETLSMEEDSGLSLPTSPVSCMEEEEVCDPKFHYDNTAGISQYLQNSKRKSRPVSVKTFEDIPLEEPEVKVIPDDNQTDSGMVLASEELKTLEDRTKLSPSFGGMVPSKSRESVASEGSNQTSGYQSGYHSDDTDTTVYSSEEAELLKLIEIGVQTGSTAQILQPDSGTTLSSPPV

Structure (SMILES)	IC50 [1] [nM]	IC50 [2] [nM]
CN(c1ccc(NC(=O)Nc2ccccc2)cc1)c1ccnc(Nc2cccc(S(N)(=O)=O)c2)n1	2	
CCNC(=O)Nc1ccc(N(C)c2ccnc(Nc3ccc(CS(C)(=O)=O)cc3)n2)cc1	27	26
CN1CCN(C(=O)c2ccc(NC(=O)Nc3ccc(N(C)c4ccnc(Nc5ccc(CS(C)(=O)=O)cc5)n4)cc3)cc2)CC1	516	150
CN(c1ccc(NC(=O)Nc2cc(C(F)(F)F)ccc2F)cc1)c1ccnc(Nc2cccc(S(N)(=O)=O)c2)n1	10	1
CN(c1ccc(NC(=O)Nc2c(Cl)cccc2Cl)cc1)c1ccnc(Nc2cccc(CS(C)(=O)=O)c2)n1 [GW809897X]	29	65
CN(c1ccc(NC(=O)Oc2ccccc2)cc1)c1ccnc(Nc2cccc(CS(C)(=O)=O)c2)n1	224	
CCNC(=O)Nc1ccc(N(C)c2ccnc(Nc3cccc(CS(C)(=O)=O)c3)n2)cc1	3	17
CN(c1ccc(NC(=O)N2CCN(CCCN3CCOCC3)CC2)cc1)c1ccnc(Nc2ccc(CS(C)(=O)=O)cc2)n1	850	4490
CCCCNC(=O)Nc1ccc(N(C)c2ccnc(Nc3cccc(CS(C)(=O)=O)c3)n2)cc1	2	29
CN(c1ccc(NC(=O)NCCc2ccccc2)cc1)c1ccnc(Nc2cccc(CS(C)(=O)=O)c2)n1	10	11
CN(c1ccc(NS(=O)(=O)Cc2ccccc2)cc1)c1ccnc(Nc2cccc(CS(C)(=O)=O)c2)n1	350	
CN(c1ccc(NC(=O)Nc2ccc(OC(F)(F)F)cc2)cc1)c1ccnc(Nc2ccc(S(N)(=O)=O)cc2)n1	37	2
CN(c1ccc(NC(=O)Cc2ccccc2)cc1)c1ccnc(Nc2cccc(CS(C)(=O)=O)c2)n1	49	
CN(c1ccc(NC(=O)Nc2ccccc2)cc1)c1ccnc(Nc2cccc(CS(C)(=O)=O)c2)n1	0.2	
CN(c1ccc(N/C(S)=N/c2ccccc2)cc1)c1ccnc(Nc2cccc(CS(C)(=O)=O)c2)n1	6	
CN(c1ccc(NC(=O)Nc2cc(C(F)(F)F)ccc2F)cc1)c1ccnc(Nc2ccc(CS(C)(=O)=O)cc2)n1	2	2
CN(C)CCNC(=O)Nc1ccc(N(C)c2ccnc(Nc3ccc(CS(C)(=O)=O)cc3)n2)cc1	2980	3110
CN(c1ccc(NC(=O)NC2CCCC2)cc1)c1ccnc(Nc2cccc(CS(C)(=O)=O)c2)n1	1	31
CC(=O)c1ccc(NC(=O)Nc2ccc(N(C)c3ccnc(Nc4cccc(CS(C)(=O)=O)c4)n3)cc2)cc1	2	3
CN1CCN(Cc2ccc(NC(=O)Nc3ccc(N(C)c4ccnc(Nc5ccc(CS(C)(=O)=O)cc5)n4)cc3)cc2)CC1	2	4
CN(c1ccc(NC(=O)Nc2ccc(OC(F)(F)F)cc2)cc1)c1ccnc(Nc2cccc(S(N)(=O)=O)c2)n1 [GW806742X]	5	2
CN(c1ccc(NC(=O)Nc2ccc(OC(F)(F)F)cc2)cc1)c1ccnc(Nc2cccc(CS(C)(=O)=O)c2)n1	7	6
CN(C)CCNC(=O)Nc1ccc(N(C)c2ccnc(Nc3cccc(CS(C)(=O)=O)c3)n2)cc1	530	681
CN(c1ccc(NC(=N)Nc2ccccc2)cc1)c1ccnc(Nc2cccc(CS(C)(=O)=O)c2)n1	596	
CN(c1ccc(NC(=O)Nc2cc(C(F)(F)F)ccc2F)cc1)c1ccnc(Nc2cccc(CS(C)(=O)=O)c2)n1	7	35
CN(c1ccc(NC(=O)NCCN2CCOCC2)cc1)c1ccnc(Nc2ccc(CS(C)(=O)=O)cc2)n1	471	990
CN(c1ccc(NC(=O)Nc2cc(C(F)(F)F)ccc2F)cc1)c1ccnc(Nc2ccc(S(N)(=O)=O)cc2)n1	8	1
